From patent publication US12410171B2, “Tropomyosin receptor kinase (TRK) degradation compounds and methods of use” (Cullgen (Shanghai), Inc., priority 2020, dated 2025) come the findings set out here.

The target of this assay is T1, TPM3-TRKA fusion protein (Homo sapiens, UniProt P04629).
T1 construct: The resulted chimeric proteins always retain the kinase domain of TRK proteins; TPM3 (fusion partner, N-terminal part of tropomyosin alpha-3, P06753); endogenous in cells; host or cells: KM12 colon cancer cells; the other entry of the earlier key: TPM3 (P06753, Tropomyosin alpha-3 chain)
T1 sequence (P04629 with tags, fused parts or gaps): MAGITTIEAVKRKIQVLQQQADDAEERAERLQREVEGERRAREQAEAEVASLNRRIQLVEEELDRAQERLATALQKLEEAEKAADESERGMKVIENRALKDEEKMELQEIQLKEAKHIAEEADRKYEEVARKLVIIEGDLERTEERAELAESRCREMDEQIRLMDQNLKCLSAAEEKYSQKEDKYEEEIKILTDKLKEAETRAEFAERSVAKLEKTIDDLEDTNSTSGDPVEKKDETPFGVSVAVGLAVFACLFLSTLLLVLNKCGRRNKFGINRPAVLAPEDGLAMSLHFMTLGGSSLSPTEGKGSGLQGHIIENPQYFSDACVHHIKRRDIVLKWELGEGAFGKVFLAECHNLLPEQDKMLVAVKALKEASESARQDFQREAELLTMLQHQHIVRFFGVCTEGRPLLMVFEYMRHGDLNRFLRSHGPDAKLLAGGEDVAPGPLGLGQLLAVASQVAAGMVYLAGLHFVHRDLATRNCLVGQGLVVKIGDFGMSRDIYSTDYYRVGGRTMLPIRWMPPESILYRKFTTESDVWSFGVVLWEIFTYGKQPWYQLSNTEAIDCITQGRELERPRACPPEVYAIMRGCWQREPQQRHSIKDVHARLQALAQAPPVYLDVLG
The experiment in a line: TPM3-TRKA fusion protein levels in KM12 cells (Western blot). Conditions: 16 h; TPM3-TRKA degradation in KM12 cells at 10 nM compound, category of percentage degradation; read-out: Degradation (at 10 nM). Format: cell-based. The method in brief:
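TPM3-TRKA levels were assessed by Western blot with chemiluminescent detection and band densitometry, after SDS-PAGE of BCA-normalized RIPA lysates. Before lysis, KM12 cells received DMSO, compounds or matched control compounds at concentrations including 0.1, 1, 10 and 100 nM and 0.4–30 nM. Exposures lasted 4 h, 8–16 h or 16 h.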
(In general: Immunoblotting shows a protein as a band on a membrane.)

Take `O=C1CCC(N2C(=O)c3ccc(NCCC(=O)N4CCN(c5ccc(C(=O)Nc6n[nH]c7ccc(Cc8cc(F)cc(F)c8)cc67)c(NC6CCOCC6)c5)CC4)cc3C2=O)C(=O)N1` (stereo not drawn) [TR-145, N—(S-(3,5-Difluorobenzyl)-1H-indazol-3-yl)-4-(4-(3-((2-(2,6-dioxopiperidin-3-yl)-1,3-dioxoisoindolin-S-yl)amino)propanoyl)piperazin-1-yl)-2-((tetrahydro-2H-pyran-4-yl)amino)benzamide]: the percent degradation of TPM3-TRKA protein at 0.01 µM was more than 80%.

As to `O=C1CCC(N2C(=O)c3ccc(NCCOCCOCCOCCC(=O)N4CCN(c5ccc(C(=O)Nc6n[nH]c7ccc(Cc8cc(F)cc(F)c8)cc67)c(NC6CCOCC6)c5)CC4)cc3C2=O)C(=O)N1` (stereo not shown) [TR-146, N-(5-(3,5-Difluorobenzyl)-1H-indazol-3-yl)-4-(4-(3-(2-(2-(2-((2-(2,6-dioxopiperidin-3-yl)-1,3-dioxoisoindolin-5-yl)amino)ethoxy)ethoxy)ethoxy)propanoyl)piperazin-1-yl)-2-((tetrahydro-2/-pyran-4-yl)amino)benzamide], the percent degradation of TPM3-TRKA protein at 0.01 µM was more than 80%.

As for `O=C(CN1CCN(c2ccc(C(=O)Nc3n[nH]c4ccc(Cc5cc(F)cc(F)c5)cc34)c(NC3CCOCC3)c2)CC1)NCCCCCCNc1cccc2c1C(=O)N(C1CCC(=O)NC1=O)C2=O` (stereo not drawn) [TR-147, N—(S-(3,5-Difluorobenzyl)-1H-indazol-3-yl)-4-(4-(2-((6-((2-(2,6-dioxopiperidin-3-yl)-1,3-dioxoisoindolin-4-yl)amino)hexyl)amino)-2-oxoethyl)piperazin-1-yl)-2-((tetrahydro-2H-pyran-4-yl)amino)benzamide], the percent degradation of TPM3-TRKA protein at 0.01 µM was more than 80%.

`O=C(CN1CCN(c2ccc(C(=O)Nc3n[nH]c4ccc(Cc5cc(F)cc(F)c5)cc34)c(NC3CCOCC3)c2)CC1)NCCCCCNc1cccc2c1C(=O)N(C1CCC(=O)NC1=O)C2=O` (stereo not shown) [TR-149, N-(5-(3,5-Difluorobenzyl)-1H-indazol-3-yl)-4-(4-(2-((5-((2-(2,6-dioxopiperidin-3-yl)-1,3-dioxoisoindolin-4-yl)amino)pentyl)amino)-2-oxoethyl)piperazin-1-yl)-2-((tetrahydro-2H-pyran-4-yl)amino)benzamide]: the percent degradation of TPM3-TRKA protein at 0.01 µM was more than 80%.

With `O=C(CN1CCN(c2ccc(C(=O)Nc3n[nH]c4ccc(Cc5cc(F)cc(F)c5)cc34)c(NC3CCOCC3)c2)CC1)NCCOCCOCCOCCOCCNc1cccc2c1C(=O)N(C1CCC(=O)NC1=O)C2=O` (stereo not shown) [TR-150, N-(5-(3,5-Difluorobenzyl)-1H-indazol-3-yl)-4-(4-(17-((2˜ (2,6-dioxopiperidin-3-yl)-1,3-dioxoisoindolin-4-yl)amino)-2-oxo-6,9,12,15-tetraoxa-3-azaheptadecyl)piperazin-1-yl)-2˜ ((tetrahydro-2H-pyran-4-yl)amino)benzamide], the percent degradation of TPM3-TRKA protein at 0.01 µM was more than 80%.

As to `O=C(CN1CCN(c2ccc(C(=O)Nc3n[nH]c4ccc(Cc5cc(F)cc(F)c5)cc34)c(NC3CCOCC3)c2)CC1)NCCOCCNc1cccc2c1C(=O)N(C1CCC(=O)NC1=O)C2=O` (stereo not shown) [TR-151, N-(5-(3,5-Difluorobenzyl)-1H-indazol-3-yl)-4-(4-(2-((2-(2-((2-(2,6-dioxopiperidin-3-yl)-1,3-dioxoisoindolin-4-yl)amino)ethoxy)ethyl)amino)-2-oxoethyl)piperazin-1-yl)-2-((tetrahydro-2H-pyran-4-yl)amino)benzamide], the percent degradation of TPM3-TRKA protein at 0.01 µM is more than 80%.

For `O=C(CN1CCN(c2ccc(C(=O)Nc3n[nH]c4ccc(Cc5cc(F)cc(F)c5)cc34)c(NC3CCOCC3)c2)CC1)NCCCNc1cccc2c1C(=O)N(C1CCC(=O)NC1=O)C2=O` (stereo not shown) [TR-152, N-(5-(3,5-Difluorobenzyl)-1H-indazol-3-yl)-4-(4-(2-((3-((2-(2,6-dioxopiperidin-3,3-yl)-1,3-dioxoisoindolin-4-yl)amino)propyl)amino)-2-oxocthyl)piperazin-1-yl)-2-((tetrahydro-2H-pyran-4-yl)amino)benzamide], the percent degradation of TPM3-TRKA protein at 0.01 µM is more than 80%.

Consider `O=C(CN1CCN(c2ccc(C(=O)Nc3n[nH]c4ccc(Cc5cc(F)cc(F)c5)cc34)c(NC3CCOCC3)c2)CC1)NCCOCCOCCNc1cccc2c1C(=O)N(C1CCC(=O)NC1=O)C2=O` (stereo not shown) [TR-153, N-(5-(3,5-Difluorobenzyl)-1H-indazol-3-yl)-4-(4-(2-((2-(2-(2-((2-(2,6-dioxopiperidin-3-yl)-1,3-dioxoisoindolin-4-yl)amino)ethoxy)ethoxy)ethyl)amino)-2-oxoethyl)piperazin-1-yl)-2-((tetrahydro-2H-pyran-4-yl)amino)benzamide], for which the percent degradation of TPM3-TRKA protein at 0.01 µM was more than 80%.

For the molecule `O=C(CN1CCN(c2ccc(C(=O)Nc3n[nH]c4ccc(Cc5cc(F)cc(F)c5)cc34)c(NC3CCOCC3)c2)CC1)NCCCCNc1cccc2c1C(=O)N(C1CCC(=O)NC1=O)C2=O` (stereo not shown) [TR-155, N-(5-(3,5-Difluorobenzyl)-1H-indazol-3-yl)-4-(4-(2-((4-((2-(2,6-dioxopiperidin-3-yl)-1,3-dioxoisoindolin-4-yl)amino)butyl)amino)-2-oxoethyl)piperazin-1-yl)-2-((tetrahydro-2/-pyran-4-yl)amino)benzamide], the percent degradation of TPM3-TRKA protein at 0.01 µM is more than 80%.

On to `O=C(CN1CCN(c2ccc(C(=O)Nc3n[nH]c4ccc(Cc5cc(F)cc(F)c5)cc34)c(NC3CCOCC3)c2)CC1)NCCCCNc1ccc2c(c1)C(=O)N(C1CCC(=O)NC1=O)C2=O` (stereo not shown) [TR-156, N-(5-(3,5-Difluorobenzyl)-1H-indazol-3-yl)-4-(4-(2-((4-((2-(2,6-dioxopiperidin-3-yl)-1,3-dioxoisoindolin-S-yl)amino)butyl)amino)-2-oxoethyl)piperazin-1-yl)-2-((tetrahydro-2H-pyran-4-yl)amino)benzamide], for which the percent degradation of TPM3-TRKA protein at 0.01 µM is more than 80%.

For the molecule `O=C(CN1CCN(c2ccc(C(=O)Nc3n[nH]c4ccc(Cc5cc(F)cc(F)c5)cc34)c(NC3CCOCC3)c2)CC1)NCCCCCCCNc1ccc2c(c1)C(=O)N(C1CCC(=O)NC1=O)C2=O` (stereo not shown) [TR-157, N-(5-(3,5-Difluorobenzyl)-1H-indazol-3-yl)-4-(4-(2-((7-((2-(2,6-dioxopiperidin-3-yl)-1,3-dioxoisoindolin-5-yl)amino)heptyl)amino)-2-oxoethyl)piperazin-1-yl)-2-((tetrahydro-2H-pyran-4-yl)amino)benzamide], the percent degradation of TPM3-TRKA protein at 0.01 µM was more than 80%.

For `O=C(CN1CCN(c2ccc(C(=O)Nc3n[nH]c4ccc(Cc5cc(F)cc(F)c5)cc34)c(NC3CCOCC3)c2)CC1)NCCOCCOCCOCCOCCNc1ccc2c(c1)C(=O)N(C1CCC(=O)NC1=O)C2=O` (stereo not shown) [TR-160, N-(5-(3,5-Difluorobenzyl)-1H-indazol-3-yl)-4-(4-(17-((2-(2,6-dioxopiperidin-3-yl)-1,3-dioxoisoindolin-S-yl)amino)-2-oxo-6,9,12,15-tetraoxa-3-azaheptadecyl)piperazin-1-yl)-2-((tetrahydro-2H-pyran-4-yl)amino)benzamide], the percent degradation of TPM3-TRKA protein at 0.01 µM was more than 80%.

On to `O=C(CN1CCN(c2ccc(C(=O)Nc3n[nH]c4ccc(Cc5cc(F)cc(F)c5)cc34)c(NC3CCOCC3)c2)CC1)NCCOCCNc1ccc2c(c1)C(=O)N(C1CCC(=O)NC1=O)C2=O` (stereo not shown) [TR-161, N-(5-(3,5-Difluorobenzyl)-1H-indazol-3-yl)-4-(4-(2-((2-(2-((2-(2,6-dioxopiperidin-3-yl)-1,3-dioxoisoindolin-5-yl)amino)ethoxy)ethyl)amino)-2-oxoethyl)piperazin-1-yl)-2-((tetrahydro-2H-pyran-4-yl)amino)benzamide], for which the percent degradation of TPM3-TRKA protein at 0.01 µM is more than 80%.
